From US9364479B2, “Use of a receptor-type kinase modulator for treating polycystic kidney disease” (SYMPHONY EVOLUTION, INC., priority 2010, dated 2016)
pIC50: −log10 of the molar value. Marks after values point to notes of the source that are not given here.

What was measured:
H1975 xenografts = experiment: Immunohistochemical analysis of H1975 xenografts (TUNEL, CD31, Ki67); format: in vivo, mouse; details: 14-day dosing
Experimental: For immunohistochemical analysis of H1975, MDA-MB-231 and other xenografts, tumors were excised after euthanasia and fixed in zinc fixative (BD Biosciences) for 48 h before being processed into paraffin blocks. Serial sections at 5 μm were obtained from the area of largest possible surface for each tumor and stained using standard methods. The following antibodies were used: Ki67 (SP6; Labvision), CD31 (MECA.32; BD Biosciences), pERK^Thr202/Tyr204 (phospho-p44/42 mitogen-activated protein kinase; Cell Signaling Technology), pAKT^Ser473 (Cell Signaling Technology), and pEGFR^Tyr1068 (Cell Signaling Technology). For immunofluorescent staining, sections were then incubated with Alexa 594-conjugated goat anti-rabbit secondary antibody (Invitrogen) and mounted in Fluorescent Mounting Medium (DAKO) containing 4′,6-diamidino-2-phenylindole (Molecular Probes) as a nuclear counterstain. Fluorescent staining was visualized using a Zeiss Axiolmager and digitally captured using a Zeiss high-resolution camera coupled to AxioVision image analysis software. Two to three nonoverlapping representative fields were captured at ×200 or ×400 magnification depending on histologic readout and quantified using the integrated morphometric analysis functions in Metamorph software (Universal Imaging Corp.). Apoptotic cells were detected using terminal deoxynucleotidyl transferase-mediated dUTP nick end labeling in situ cell death detection kit according to the manufacturer's instructions (Roche Diagnostics GmbH).
CD31-positive tumor vessels, Ki67-positive proliferating cells, and pERK staining in each tumor section were identified and quantified using the integrated morphometric analysis functions in the ACIS automatic cellular imaging system (Clarient, Inc.) and reviewed by a blinded observer. Number of CD31-positive vessels were identified across 5 to 10 randomly chosen fields of equal size at ×100 magnification in viable tumor tissue and calculated as number of vessels per square millimeter for each tumor, averaged for each treatment group, and compared with vehicle-treated controls. Percentage Ki67-positive cells were calculated as the ratio between Ki67-positive cells divided by the total number of cells identified across 5 to 10 randomly chosen fields of equal size in viable tumor tissue. The results for each tumor and treatment group were averaged and compared with vehicle-treated controls. The level of pERK staining was determined as described above and calculated as the ratio of antibody staining divided by the total number of cells identified, averaged for each treatment group, and compared with vehicle-treated controls.
Results are presented as mean±SD or SE as indicated for each graph or table. For IC50 comparison in the A431 cell viability experiment, two sample Student's t tests were applied to determine P values for each IC50 pair assuming that the random fluctuations of replicates around the dose-response curve are distributed [log]normally with the individual replicates used as the ‘sample size’ for the t test (nine point dose response done in triplicate). For statistical analysis of immunohistochemical results from in vivo studies, two-tailed Student's t test analysis and Bonferroni correction were done to identify significant differences compared with vehicle control group (multiple use of a single vehicle control group) with a cumulative minimal requirement of P<0.05.

Glutamate, AMPA Site = experiment: NovaScreen assay; format: binding
ErbB2 = ErbB2 (Homo sapiens, UniProt P04626); experiment: ErbB2 autophosphorylation ELISA, BT474 cells; format: cell-based; details: read-out: Cellular IC50, autophosphorylation
Experimental: The ErbB2 autophosphorylation ELISA utilized BT474 (ATCC) cells. Cells were seeded at 3×10^4 cells/well into 96-well microtiter plates (Costar 3904), in 1:1(DMEM:F12K) (Cellgro) containing 10% FBS (Heat-Inactivated, Hyclone), 1% penicillin-streptomycin (Cellgro), 1% NEAA solution (Cellgro), and 2% L-Glutamine (Cellgro). The cells were then incubated at 37° C., 5% CO2 for 40 hr. […] Following treatment, media was removed, the cell monolayer was washed with cold PBS and immediately lysed with cold lysis buffer. Lysates were centrifuged and transferred into blocked (1% BSA) 96-well high-binding plates (Costar 3925) coated with rabbit polyclonal anti-ErbB2 (1.3 μg/ml, Cell Signaling Technology). Plates were then incubated with HRP-conjugated, anti-phosphotyrosine cocktail (1:10,000, Zymed Laboratories, Inc), followed by the addition of a luminol-based substrate solution. Plates were read with a Victor spectrophotometer (Wallac). IC50 values were determined based on total ErbB2 tyrosine phosphorylation with compound treatment versus total ErbB2 tyrosine phosphorylation with no compound treatment.

Estrogen = experiment: NovaScreen assay; format: binding
[1] = tested on: Glycine, Strychnine-sensitive; experiment: NovaScreen assay; format: binding
NOS (Neuronal-Binding) = target: T1, NOS (Neuronal-Binding) (Homo sapiens, UniProt P29475); experiment: NovaScreen assay; details: read-out: Inhibition, 10 μM XL-647
T1 construct: NovaScreen
T1 sequence (P29475 whole entry): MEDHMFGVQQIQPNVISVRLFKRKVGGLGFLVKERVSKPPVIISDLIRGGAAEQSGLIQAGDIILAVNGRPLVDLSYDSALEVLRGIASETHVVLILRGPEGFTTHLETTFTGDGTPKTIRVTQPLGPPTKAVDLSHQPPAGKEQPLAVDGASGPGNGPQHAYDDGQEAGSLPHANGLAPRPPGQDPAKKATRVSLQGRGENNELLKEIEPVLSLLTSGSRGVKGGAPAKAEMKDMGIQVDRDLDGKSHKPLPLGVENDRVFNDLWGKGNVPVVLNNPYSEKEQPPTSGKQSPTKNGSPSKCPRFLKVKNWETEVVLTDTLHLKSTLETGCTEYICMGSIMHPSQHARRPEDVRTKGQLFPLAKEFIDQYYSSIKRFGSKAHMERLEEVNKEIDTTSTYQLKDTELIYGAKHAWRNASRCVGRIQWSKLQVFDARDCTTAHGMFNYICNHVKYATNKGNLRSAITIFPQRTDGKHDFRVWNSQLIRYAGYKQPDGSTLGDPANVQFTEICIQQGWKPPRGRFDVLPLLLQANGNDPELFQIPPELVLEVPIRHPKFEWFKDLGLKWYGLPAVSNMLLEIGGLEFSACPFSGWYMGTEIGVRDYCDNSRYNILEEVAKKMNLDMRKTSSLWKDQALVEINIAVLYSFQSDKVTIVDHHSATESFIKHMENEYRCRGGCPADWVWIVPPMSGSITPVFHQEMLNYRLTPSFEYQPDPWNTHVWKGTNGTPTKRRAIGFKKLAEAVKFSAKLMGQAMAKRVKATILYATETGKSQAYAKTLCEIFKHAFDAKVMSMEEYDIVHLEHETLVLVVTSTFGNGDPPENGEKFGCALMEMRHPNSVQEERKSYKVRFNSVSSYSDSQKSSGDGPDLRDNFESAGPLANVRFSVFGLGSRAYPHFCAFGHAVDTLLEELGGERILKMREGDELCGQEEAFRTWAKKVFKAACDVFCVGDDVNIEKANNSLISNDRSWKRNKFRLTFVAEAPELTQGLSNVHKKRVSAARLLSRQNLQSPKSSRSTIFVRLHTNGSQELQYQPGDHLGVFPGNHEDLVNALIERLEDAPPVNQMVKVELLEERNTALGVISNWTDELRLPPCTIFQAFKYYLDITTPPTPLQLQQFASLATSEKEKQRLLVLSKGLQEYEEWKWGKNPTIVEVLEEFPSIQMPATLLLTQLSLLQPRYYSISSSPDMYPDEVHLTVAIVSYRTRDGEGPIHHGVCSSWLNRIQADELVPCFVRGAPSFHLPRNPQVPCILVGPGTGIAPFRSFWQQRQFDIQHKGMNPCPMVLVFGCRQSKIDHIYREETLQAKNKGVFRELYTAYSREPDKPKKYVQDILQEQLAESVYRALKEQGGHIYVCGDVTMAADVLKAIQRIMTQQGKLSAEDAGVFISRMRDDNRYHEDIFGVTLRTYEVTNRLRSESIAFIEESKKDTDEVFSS

p-Y-EGFR = p-Y-EGFR (Homo sapiens, UniProt P00533); experiment: In vivo receptor phosphorylation, A431 xenografts; design: species or system mouse
Sequence of p-Y-EGFR (P00533 25-1210): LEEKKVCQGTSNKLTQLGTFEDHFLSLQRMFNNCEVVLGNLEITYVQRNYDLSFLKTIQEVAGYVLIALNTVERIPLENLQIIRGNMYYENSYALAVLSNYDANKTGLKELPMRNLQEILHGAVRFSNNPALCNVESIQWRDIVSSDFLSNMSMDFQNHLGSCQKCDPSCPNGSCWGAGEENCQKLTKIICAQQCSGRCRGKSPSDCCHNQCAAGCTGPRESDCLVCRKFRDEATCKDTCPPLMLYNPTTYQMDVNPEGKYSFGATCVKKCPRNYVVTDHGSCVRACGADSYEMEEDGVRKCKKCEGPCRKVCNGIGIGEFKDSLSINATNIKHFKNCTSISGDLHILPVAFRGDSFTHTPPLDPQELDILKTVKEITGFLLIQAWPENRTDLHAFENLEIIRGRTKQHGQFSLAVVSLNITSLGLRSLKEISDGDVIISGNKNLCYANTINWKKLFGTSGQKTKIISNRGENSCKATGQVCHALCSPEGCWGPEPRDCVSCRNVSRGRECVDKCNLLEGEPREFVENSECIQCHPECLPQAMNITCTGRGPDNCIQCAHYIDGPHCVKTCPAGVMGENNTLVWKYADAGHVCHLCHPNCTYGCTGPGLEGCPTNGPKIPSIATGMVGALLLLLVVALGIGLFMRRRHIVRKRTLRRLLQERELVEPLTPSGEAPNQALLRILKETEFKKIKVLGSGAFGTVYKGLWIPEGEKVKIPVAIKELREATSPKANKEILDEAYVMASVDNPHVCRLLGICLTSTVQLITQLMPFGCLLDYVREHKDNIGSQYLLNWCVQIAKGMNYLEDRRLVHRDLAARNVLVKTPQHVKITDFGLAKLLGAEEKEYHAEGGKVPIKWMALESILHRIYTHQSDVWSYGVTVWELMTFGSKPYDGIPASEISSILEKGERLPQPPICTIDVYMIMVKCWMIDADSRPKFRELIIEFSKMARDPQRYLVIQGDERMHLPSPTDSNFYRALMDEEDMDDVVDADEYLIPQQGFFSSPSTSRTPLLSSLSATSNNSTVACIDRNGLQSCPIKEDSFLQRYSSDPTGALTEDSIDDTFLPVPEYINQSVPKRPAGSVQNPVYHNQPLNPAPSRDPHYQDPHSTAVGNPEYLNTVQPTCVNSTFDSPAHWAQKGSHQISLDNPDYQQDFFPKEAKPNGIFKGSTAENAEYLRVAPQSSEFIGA

Acetylcholinesterase = target: T2, Acetylcholinesterase (Homo sapiens, UniProt P22303); experiment: NovaScreen assay; format: biochemical; details: read-out: Inhibition, 10 μM XL-647
T2 construct: NovaScreen

[2] = tested on: HN5 human tumor xenograft; experiment: HN5 xenograft, tumor growth; format: in vivo; details: Mus musculus; qd × 14
Experimental: The response of tumors to treatment was determined by comparing the mean tumor weight of the treatment group with the appropriate control group. Percentage inhibition of tumor growth was determined with the following formula: Percentage inhibition=100×[1−(Xf−Xo)/(Yf−Yo)], where Xf and Yf are the mean tumor weights of the treatment and control groups, respectively, on day f, and Xo and Yo are the mean tumor weights of treatment and control groups respectively, on day zero (staged tumor weights after grouping)

CYP3A4 = CYP3A4 (Homo sapiens, UniProt P08684); details: microsomes
Sequence of CYP3A4 (P08684 whole entry): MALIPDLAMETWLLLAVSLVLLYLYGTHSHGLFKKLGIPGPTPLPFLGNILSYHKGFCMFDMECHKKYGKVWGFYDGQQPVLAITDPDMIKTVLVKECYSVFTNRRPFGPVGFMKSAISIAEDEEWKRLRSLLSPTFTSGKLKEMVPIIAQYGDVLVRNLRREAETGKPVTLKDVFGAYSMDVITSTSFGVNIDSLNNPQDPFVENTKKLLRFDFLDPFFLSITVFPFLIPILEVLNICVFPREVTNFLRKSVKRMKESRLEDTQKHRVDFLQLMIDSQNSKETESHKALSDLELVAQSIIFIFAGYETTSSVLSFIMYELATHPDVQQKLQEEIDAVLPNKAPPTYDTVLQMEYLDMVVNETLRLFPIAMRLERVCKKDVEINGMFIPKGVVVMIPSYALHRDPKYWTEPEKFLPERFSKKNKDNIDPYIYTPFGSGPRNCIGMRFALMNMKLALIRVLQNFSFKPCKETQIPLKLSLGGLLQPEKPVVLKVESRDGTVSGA

Serotonin Transporter = target: T3, Serotonin Transporter (Homo sapiens, UniProt P31645); experiment: NovaScreen assay; format: binding
T3 construct: NovaScreen
T3 sequence (P31645 whole entry): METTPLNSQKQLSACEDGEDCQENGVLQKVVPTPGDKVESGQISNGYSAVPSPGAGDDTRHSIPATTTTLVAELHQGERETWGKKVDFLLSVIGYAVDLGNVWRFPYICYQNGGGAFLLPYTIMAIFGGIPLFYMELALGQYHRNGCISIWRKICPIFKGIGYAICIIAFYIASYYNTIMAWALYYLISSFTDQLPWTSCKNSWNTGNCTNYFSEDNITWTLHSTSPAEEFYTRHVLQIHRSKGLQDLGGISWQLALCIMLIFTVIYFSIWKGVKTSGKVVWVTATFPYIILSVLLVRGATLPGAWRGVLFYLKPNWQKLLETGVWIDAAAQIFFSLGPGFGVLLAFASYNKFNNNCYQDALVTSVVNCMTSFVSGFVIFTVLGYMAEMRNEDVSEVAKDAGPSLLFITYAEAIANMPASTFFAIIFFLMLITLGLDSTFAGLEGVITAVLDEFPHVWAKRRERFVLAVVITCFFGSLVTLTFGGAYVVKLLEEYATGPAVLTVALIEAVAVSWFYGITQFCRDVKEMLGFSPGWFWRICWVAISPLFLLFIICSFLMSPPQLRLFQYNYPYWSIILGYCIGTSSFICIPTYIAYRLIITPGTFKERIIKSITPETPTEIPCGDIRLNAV

EphB4 = target: T4, EphB4 (Homo sapiens, UniProt P54760); experiment: EphB4 autophosphorylation ELISA, EphB4/Hep3B cells; format: cell-based; details: read-out: Cellular IC50, autophosphorylation
T4 construct: expressed in transfected cells; host or cells: Hep3B
T4 sequence (P54760 16-987): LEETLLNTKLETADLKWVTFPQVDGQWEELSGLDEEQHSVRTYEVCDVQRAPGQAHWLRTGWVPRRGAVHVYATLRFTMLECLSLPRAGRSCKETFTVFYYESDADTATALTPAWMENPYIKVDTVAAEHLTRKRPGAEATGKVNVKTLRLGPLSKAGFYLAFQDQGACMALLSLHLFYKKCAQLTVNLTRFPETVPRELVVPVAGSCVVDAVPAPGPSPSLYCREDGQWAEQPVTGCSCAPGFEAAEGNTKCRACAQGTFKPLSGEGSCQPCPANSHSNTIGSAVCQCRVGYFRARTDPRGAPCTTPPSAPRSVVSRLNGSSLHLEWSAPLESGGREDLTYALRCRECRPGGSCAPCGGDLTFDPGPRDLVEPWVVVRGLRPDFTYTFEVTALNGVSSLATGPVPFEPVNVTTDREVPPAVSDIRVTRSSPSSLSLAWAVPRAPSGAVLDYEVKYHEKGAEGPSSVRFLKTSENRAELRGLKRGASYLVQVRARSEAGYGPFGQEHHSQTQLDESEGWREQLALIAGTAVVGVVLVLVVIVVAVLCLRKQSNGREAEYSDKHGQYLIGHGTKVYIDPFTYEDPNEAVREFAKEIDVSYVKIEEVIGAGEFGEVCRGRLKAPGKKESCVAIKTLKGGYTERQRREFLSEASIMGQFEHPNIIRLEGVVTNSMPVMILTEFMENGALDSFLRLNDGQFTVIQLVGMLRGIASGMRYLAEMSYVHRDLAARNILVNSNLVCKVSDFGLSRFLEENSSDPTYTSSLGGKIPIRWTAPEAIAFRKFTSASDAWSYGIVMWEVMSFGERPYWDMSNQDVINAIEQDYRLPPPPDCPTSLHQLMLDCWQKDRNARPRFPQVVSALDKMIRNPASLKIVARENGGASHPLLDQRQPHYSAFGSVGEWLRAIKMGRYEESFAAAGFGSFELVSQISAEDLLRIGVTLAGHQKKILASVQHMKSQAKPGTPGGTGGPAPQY
Experimental: The EphB4 autophosphorylation ELISA utilized EphB4/Hep3B cells. Cells were seeded at 2×10^4 cells/well onto 96-well microtiter plates (Costar 3904), in MEME (Cellgro) containing 10% FBS (Heat-Inactivated, Hyclone), 1% penicillin-streptomycin (Cellgro) and 450 μg/ml G418 (Invitrogen). The cells were then incubated at 37° C., 5% CO2 for 24 h. Growth media was replaced with serum-free MEME and cells were incubated for an additional 16 h. […] Negative control wells were not treated with growth factor. Following treatment, media was removed, the cell monolayer washed with cold PBS and immediately lysed with cold lysis buffer (50 mM Tris-HCl, pH 8.0, 200 mM NaCl, 0.5% NP-40, 0.2% sodium deoxcholate, 1 mM EDTA, 50 mM NaF, 1 mM sodium pyrophosphate, 1 mM sodium orthovanadate, 2 mM phenylmethylsulfonyl fluoride, 10 μg/ml aprotinin, 5 μg/ml leupeptin and 5 μg/ml pepstatin A). Lysates were centrifuged and incubated in blocked (1% BSA) high-binding 96-well plates (Costar 3925) coated with anti-mouse EphB4 (2.5 μg/ml, R&D Systems). Plates were then incubated with HRP-conjugated anti-phosphotyrosine cocktail (1:10,000, Zymed Laboratories, Inc) followed by the addition of a luminol-based substrate solution. Plates were read using a Victor spectrophotometer (Wallac).

**Q.** How did the “CD31 Analysis % Reduction” value (H1975 xenografts; 10 mg/kg) turn out when COc1cc2c(Nc3ccc(Cl)c(Cl)c3F)ncnc2cc1OC[C@@H]1C[C@@H]2CN(C)C[C@@H]2C1 [XL-647, N-(3,4-dichloro-2-fluorophenyl)-7-({[(3aR,5r,6aS)-2-methyloctahydrocyclopenta[c]pyrrol-5-yl]methyl}oxy)-6-(methyloxy)quinazolin-4-amine] was run?
**A.** 30.0^b %

**Q.** And the “CD31 Analysis MVC” value (H1975 xenografts; 10 mg/kg)?
**A.** 44

**Q.** And the “Ki67 Expression % Cells” value (H1975 xenografts; 10 mg/kg)?
**A.** 27%

**Q.** What about the “Ki67 Expression % Reduction” value (H1975 xenografts; 10 mg/kg) of the same compound?
**A.** 23.2^b %

**Q.** What about the “TUNEL % Cells” value (H1975 xenografts; 10 mg/kg) of the same compound?
**A.** 6%

**Q.** And the “CD31 Analysis % Reduction” value (H1975 xenografts; 30 mg/kg)?
**A.** 46.1^a %

**Q.** And the “CD31 Analysis MVC” value (H1975 xenografts; 30 mg/kg)?
**A.** 34

**Q.** And the “Ki67 Expression % Cells” value (H1975 xenografts; 30 mg/kg)?
**A.** 20%

**Q.** And the “Ki67 Expression % Reduction” value (H1975 xenografts; 30 mg/kg)?
**A.** 41.9^a %

**Q.** And the “TUNEL % Cells” value (H1975 xenografts; 30 mg/kg)?
**A.** 11%

**Q.** And the “CD31 Analysis % Reduction” value (H1975 xenografts; 100 mg/kg)?
**A.** 69.6^a %

**Q.** And the “CD31 Analysis MVC” value (H1975 xenografts; 100 mg/kg)?
**A.** 19

**Q.** And the “Ki67 Expression % Cells” value (H1975 xenografts; 100 mg/kg)?
**A.** 8.9%

**Q.** What about the “Ki67 Expression % Reduction” value (H1975 xenografts; 100 mg/kg) of the same compound?
**A.** 74.6^a %

**Q.** And the “TUNEL % Cells” value (H1975 xenografts; 100 mg/kg)?
**A.** 15%

**Q.** And the “Inhibition, 10 μM XL-647” value (Glutamate, AMPA Site)?
**A.** 10.79%

**Q.** What about the pIC50 (ErbB2) of the same compound?
**A.** 6.26

**Q.** What about the “Inhibition, 10 μM XL-647” value (Estrogen) of the same compound?
**A.** 15.75%

**Q.** And the “Inhibition, 10 μM XL-647” value [1]?
**A.** 12.95%

**Q.** And the inhibition at 10 µM (NOS (Neuronal-Binding))?
**A.** 16.8%

**Q.** What about the “Single Dose Duration of Action (100 mg/kg, >50% inhibition)” value (p-Y-EGFR; A431 xenografts) of the same compound?
**A.** >72 h

**Q.** And the inhibition at 3 mg/kg (p-Y-EGFR; A-431, mouse, 3 mg/kg, dosed 3.5 hours before EGF)?
**A.** 41%

**Q.** And the inhibition at 10 mg/kg (p-Y-EGFR; A-431, mouse, 10 mg/kg, dosed 3.5 hours before EGF)?
**A.** 70%

**Q.** What about the inhibition at 30 mg/kg (p-Y-EGFR; A-431, mouse, 30 mg/kg (plasma 4 μM), dosed 3.5 hours before EGF) of the same compound?
**A.** 89%

**Q.** What about the inhibition at 100 mg/kg (p-Y-EGFR; A-431, mouse, 100 mg/kg, dosed 3.5 hours before EGF) of the same compound?
**A.** 93%

**Q.** And the pIC50 (p-Y-EGFR; in vivo, A431 xenografts, PO, read-out: Estimated IC50 (plasma concentration))?
**A.** 6.14

**Q.** What about the inhibition at 10 µM (Acetylcholinesterase) of the same compound?
**A.** 49.4%

**Q.** And the ED50 [2]?
**A.** < 3 mg/kg

**Q.** And the “CYP3A4 inhibition, in words” value (CYP3A4)?
**A.** but not CYP3A4

**Q.** And the pIC50 (Serotonin Transporter)?
**A.** 6.73

**Q.** And the inhibition at 10 µM (Serotonin Transporter; read-out: Inhibition, 10 μM XL-647)?
**A.** 101%

**Q.** What about the pIC50 (EphB4) of the same compound?
**A.** 8.52
